Measurements reported in patent US6110895A, “Method of promoting healing in skin grafts” (University of Southern California, priority 1997, dated 2000).

Legend:
[1] = cited from earlier work
[2] = system: full thickness dermal wounds; assay: Wound closure by analogs of AII and AIII, Table 4 (Example 7); assay type: in vivo, Sprague Dawley rats; conditions: percentage of vehicle-treated control wound, method of Example 6 (100 μg/wound, days 0-4)
From the text: Female Sprague Dawley rats weighing 175-200 grams were obtained from Simonsen Laboratories (Gilroy, Calif.). On the day of surgery, rats received intramuscular ketamine/rompum anesthesia prior to preparation for surgery. The rats were shaved and scrubbed with betadine. Two 1.5×1.5 cm full thickness dermal wounds were created on the dorsal surface of each rat. Following excision of the skin, the size of the wound was outlined on a glass slide to establish the baseline wound size. The medicament was administered in 100 μl of 10% low viscosity carboxymethyl cellulose (Sigma). The p-NH2 -Phe6-AII test material was administered in a randomized fashion with all materials being tested at 100 μg/wound. Control wounds were treated with vehicle only. After administration of the materials, the rats were bandaged and allowed to recovery from anesthesia. The rats were treated with an additional 100 μg of peptide formulation on days 1-4 after surgery. On days 2, 4, 7 and 9 the area of the skin wounds were measured under methoxyflurane anesthesia. The area of the wound was determined by: (1) tracing the wound shape onto graph paper (1×1 mm squares); (2) cutting out the shape; (3) weighing the paper and comparing the weight with a 1.5×1.5 cm paper cutout; and (4) counting the number of squares on the graph paper. In addition, on days 2, 4 and 7 the area of granulation tissue was similarly determined.
Analogs of AII and AIII having the structures disclosed in Table 4 were prepared using an automated peptide synthesizer and methods familiar to those having ordinary skill in the art. Each of the analogs was tested for its ability to accelerate wound healing essentially according to the method of Example 6. Results of procedures used to determine the extent of wound closure at days 4 and 9 measured as a percentage of a vehicle-treated control wound are also presented in Table 4. Since all of the analogs were not tested during the same experimental procedure, AII was included as a positive control for each group of peptides tested. As designated below, peptide analogs are identified as analogs of AII or AIII having amino acid substitutions at positions indicated by superscripts. Thus, for example, Gly^4 -AIII is the designation for an AIII analog having a Gly residue substituted at position 4 of AIII. Results from procedures using analogs that were tested as a group are grouped together in the following Table.

[3] = intracerebroventricular infusion at concentrations 1,000 times higher than that of AII; cited from earlier work
[4] = system: aminopeptidase; conditions: reported in literature; cited from earlier work
[5] = system: rat carotid artery; conditions: cited from earlier work; for neointimal formation: similar model, Janiak et al. 1992, CGP 42112 infused perivascularly 14 days, losartan low doses
[6] = system: full thickness dermal wounds; assay: Healing of full thickness dermal wounds with AIII (Example 3); assay type: in vivo, Sprague Dawley rats; conditions: 2×2 cm wounds; 3 μg and 10 μg dosages; FIG. 8
From the text: Twelve week old male Sprague Dawley rats were obtained from Simonsen Laboratories (Gilroy, Calif.). On the date of surgery, rats received intramuscular ketamine/rompum anesthesia prior to preparation for surgery. The rats were shaved and scrubbed with betadine. Four 2×2 cm full thickness dermal wounds were created on the dorsal surface of the rat. Following excision of the skin, the size of the wound was outlined on a glass slide to establish the baseline wound size. The medicament was administered in 100 μl of a solution comprising 10% HYDRON, 1% polyethylene glycol (MW 400) and 60% ethanol. Test materials were administered in a randomized fashion. AIII was evaluated at 3 and 10 μg/wound. Controls were treated with vehicle only. After administration of the materials, the rats were bandaged and allowed to recover from anesthesia. At days 2, 5, 6, 8 and 10 the area of the skin wounds were measured under methoxyflurane anesthesia. The area of the wound was determined by: (1) tracing the wound shape onto graph paper (1×1 mm squares); (2) cutting out the shape; (3) weighing the paper and comparing the weight with a 2×2 cm paper cutout; and (4) counting the number of squares.

Asp-Arg-Val-Tyr-Ile-His-Pro (DRVYIHP; printed: Asp-Arg-Val-Tyr-Ile-His-Pro) [AII(1-7)]
amount needed for pressor response comparable to AII ([1]; Benter et al. 1993): about 10,000 times
dose effective on blood pressure relative to the dose of AII ([1]; depending on model and route of administration): 10,000-100,000 times

homoSer^4 -AII [GSD41B]
extent of wound closure, % Control (Day 4) [2]: 77.6%
extent of wound closure, % Control (Day 9) [2]: 55.8%

Asp-Arg-Val-Tyr(PO3)2 -Ile-His-Pro-Phe [[Tyr(PO3)2]^4 -AII]
extent of wound closure, % Control (Day 4) [2]: 81.3%
extent of wound closure, % Control (Day 9) [2]: 61.9%

Ile-His-Pro-Phe (IHPF; printed: Ile-His-Pro-Phe) [AII(5-8)]
effect on blood pressure [3]: minimal effect on blood pressure

CC[C@H](C)[C@H](NC(=O)[C@H](Cc1ccc(O)cc1)NC(=O)[C@@H](NC(=O)[C@H](CCCNC(=N)N)NC(=O)CNC)C(C)C)C(=O)N[C@@H](Cc1cnc[nH]1)C(=O)N1CCC[C@H]1C(=O)N[C@@H](Cc1ccccc1)C(=O)O [Analog 4, Sar-Arg-Val-Tyr-Ile-His-Pro-Phe]
cleavage by aminopeptidase [4]: resistant to cleavage by aminopeptidase

Cc1cc(Cn2cnc3c2C[C@@H](C(=O)O)N(C(=O)C(c2ccccc2)c2ccccc2)C3)ccc1N(C)C [PD 123319]
reduction of intimal hyperplasia ([5]; Pratt et al. 1992): 73%

CCCCc1nc(Cl)c(CO)n1Cc1ccc(-c2ccccc2-c2nn[nH]n2)cc1 [losartan]
decrease of intimal area ([5]; Pratt et al. 1992): 95%
neointimal formation, higher doses ([5]; other studies, losartan at higher doses): effective
neointimal formation [5]: ineffective

CC[C@H](C)[C@H](NC(=O)[C@H](Cc1ccc(O)cc1)NC(=O)[C@@H](NC(=O)[C@@H](N)CCCNC(=N)N)C(C)C)C(=O)N[C@@H](Cc1c[nH]cn1)C(=O)N1CCC[C@H]1C(=O)N[C@@H](Cc1ccccc1)C(=O)O [AIII, Arg-Val-Tyr-Ile-His-Pro-Phe]
wound closure relative to vehicle-treated control [6]: substantially accelerated

CGP 42112
neointimal formation [5]: prevented neointimal formation
